# Results reported in patent US12391658B2, “Sulfoxide and sulfone glucokinase activators and methods of use thereof” (vTv Therapeutics LLC, priority 2020, dated 2025).
# Where two headings read alike, the source gives them in different places. Marks after values point to notes of the source that are not given here.
# How the values were obtained:
# efflux transporter = test: Efflux substrate activity (monolayer efflux assay); type: in vitro ADME; details: tested concentrations of 12.5 μg/mL and 50 μg/mL
# Protocol: (§1) The cell-based bidirectional permeability assay (or monolayer efflux assay) is a method for determining transporter inhibition (such as P-glycoprotein (P-gp) or Breast Cancer Resistance Protein (BCRP)) potential of test compounds in drug discovery. The experimental protocol for this assay is well established and typically, bidirectional permeability of a known substrate is assessed alone and in the presence of a single concentration of test compound to estimate the inhibition potential.
# (§2) The monolayer efflux assay, where the ratio of basolateral-to-apical (B→A) permeability versus apical-to-basolateral (A→B) permeability is compared with a value of 1, is regarded as the standard for identifying substrates. Due to concentration-dependent inhibition of active efflux on the apical side by inhibitors, the B→A permeability decreases whilst A→B permeability increases with ratio approaching unity as the dose of inhibitor increases. The affinity of inhibitor to efflux protein(s) may be studied by calculating the active flux that can be obtained from the B→A fluxes in the absence and presence of efflux inhibitors. Inhibition potency, determined by inhibitor concentration-dependent transport assay, is usually represented as an IC50 value, the concentration that gives 50% of maximum inhibition of a known P-gp or BCRP substrate. Specificity of the inhibitor to P-gp or BCRP may be determined by competitive assays, which involve a transport assay of a known substrate in the presence of known inhibitors (specific to various transporters) with and without test compounds. Thus, appropriate design of competitive inhibition assays using known selected substrates and modulators will show the specificity of an inhibitor towards an efflux pump.
# The potential for P-glycoprotein (P-gp) substrate inhibitory activity of a test compound may be evaluated by determining a test compound's Caco-2 permeability in the presence or absence of a P-gp inhibitor such as Cyclosporin A (CsA) or verapamil.
# (§3) The substrate and inhibitor potential of a test compound for the apical efflux transported breast cancer resistance protein (BCRP) may also be evaluated using a bidirectional permeability assessment where the controls are Ko143 (a potent inhibitor of BCRP) and E3S (estrone-3-sulphate, a substrate for BCRP) and across a range of test compound concentrations such as 1, 5, 20, 100, and 200 μg/mL or 1.6, 3.2, 16, 32, 160 and 320 μg/mL).
# (§4) The Caco-2 permeability, P-gp substrate and inhibitory activity, and BCRP substrate and inhibitory activity of Sulfoxide-1, Sufloxide-1A, Sulfoxide-1B, Sulfone-1, and SM-1 was investigated using procedures similar to those described above.
# (§5) As summarized in Table 2 below, except for Sulfoxide-1B, all of the tested compounds had low Caco-2 cell permeability and were weak efflux transporter substrates at the tested concentrations of 12.5 μg/mL and 50 μg/mL.
# [1] = target: T1, breast cancer resistance protein (BCRP) (Homo sapiens, UniProt Q9UNQ0); test: BCRP transporter inhibition; type: in vitro ADME
# T1 construct: endogenous in cells
# T1 sequence (Q9UNQ0 1-655): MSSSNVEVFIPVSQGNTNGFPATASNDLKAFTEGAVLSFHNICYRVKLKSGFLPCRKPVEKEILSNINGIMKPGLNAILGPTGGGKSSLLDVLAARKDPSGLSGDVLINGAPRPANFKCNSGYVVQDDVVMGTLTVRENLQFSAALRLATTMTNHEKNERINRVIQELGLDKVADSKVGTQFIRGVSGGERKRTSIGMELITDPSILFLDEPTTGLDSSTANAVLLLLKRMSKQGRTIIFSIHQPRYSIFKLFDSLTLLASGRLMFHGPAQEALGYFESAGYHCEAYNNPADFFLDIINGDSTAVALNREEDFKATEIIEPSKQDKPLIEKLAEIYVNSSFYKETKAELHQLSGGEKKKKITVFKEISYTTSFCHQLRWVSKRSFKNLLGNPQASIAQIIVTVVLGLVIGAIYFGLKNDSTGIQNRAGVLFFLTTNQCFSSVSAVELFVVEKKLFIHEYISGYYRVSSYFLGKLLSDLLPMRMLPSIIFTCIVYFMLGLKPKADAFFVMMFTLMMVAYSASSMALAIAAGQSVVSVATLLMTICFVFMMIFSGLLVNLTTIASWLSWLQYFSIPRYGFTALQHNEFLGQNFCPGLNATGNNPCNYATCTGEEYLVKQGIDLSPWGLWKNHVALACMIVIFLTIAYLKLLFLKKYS
# Protocol: as §1, §2, §3, §4
# P-glycoprotein (P-gp) = target: T2, P-glycoprotein (P-gp) (Homo sapiens, UniProt P08183); test: P-gp transporter inhibition; type: in vitro ADME
# T2 construct: the P-gp transporter expressed on Caco-2 cell monolayers; endogenous in cells; host or cells: Caco-2
# Protocol: as §1, §2
# The potential inhibitory activity of a compound on the P-gp transporter expressed on Caco-2 cell monolayers may be investigated in experiments monitoring the bi-directional transport of a test compound in the presence or absence of a P-gp inhibitor such as Cyclosporin A (CsA) or verapamil.
# The potential inhibitory activity of a compound on the P-gp transporter expressed on Caco-2 cell monolayers may also be investigated in experiments monitoring the bi-directional transport of [^3H]-digoxin in the presence of increasing concentrations of a test compound (such as 1, 5, 20, 100, and 200 μg/mL or 1.6, 3.2, 16, 32, 160 and 320 μg/mL). If the efflux of [^3H]-digoxin is not inhibited by a test compound, the test compound is likely a poor inhibitor of P-gp. If the efflux of [^3H]-digoxin is inhibited by a test compound, the IC50 value may be calculated using a non-linear regression of permeability data collected at various concentrations.
# as §4
# Caco-2 monolayers = test: Caco-2 permeability; type: in vitro ADME, human; details: tested concentrations of 12.5 μg/mL and 50 μg/mL
# From the text: Differentiated Caco-2 cells form a polarized epithelial cell monolayer that provides a physical and biochemical barrier to the passage of ions and small molecules. Using commercially available kits, the Caco-2 monolayer may be used as an in vitro model of the human small intestinal mucosa to predict the intestinal permeability or absorption of orally administered drugs. Researchers have shown a correlation for some molecules between the in vitro apparent permeability (Papp) across Caco-2 monolayers and the in vivo fraction absorbed.
# The permeability of a compound may be evaluated in a bi-directional transport experiments at multiple concentrations (such as 1, 2, 5, 20, 100 and 200 μg/mL) using Caco-2 monolayers. The apparent permeability coefficients (Papp) for a compound may be calculated and compared with the permeability of a high permeability marker (such as labetalol) and a low permeability marker (such as mannitol).
# as §4, §5
# Aqueous solubility = type: physicochemical; details: for aqueous solubility compared with SM-1: across a range of pH's
# From the text: The aqueous solubility of Sulfoxide-1, Sufloxide-1A, Sulfoxide-1B, Sulfone-1, and SM-1 was investigated.
# [2] = acetate buffer, pH 4.5, aqueous buffer, Acetate Buffer pH 4.5, read-out: Solubility
# [3] = phosphate buffer, pH 6.5, aqueous buffer, Phosphate Buffer pH 6.5, read-out: Solubility
# [4] = 0.1N HCl, simulated gastric fluid, 0.1N HCl, read-out: Solubility
# T2 sequence (P08183 whole entry): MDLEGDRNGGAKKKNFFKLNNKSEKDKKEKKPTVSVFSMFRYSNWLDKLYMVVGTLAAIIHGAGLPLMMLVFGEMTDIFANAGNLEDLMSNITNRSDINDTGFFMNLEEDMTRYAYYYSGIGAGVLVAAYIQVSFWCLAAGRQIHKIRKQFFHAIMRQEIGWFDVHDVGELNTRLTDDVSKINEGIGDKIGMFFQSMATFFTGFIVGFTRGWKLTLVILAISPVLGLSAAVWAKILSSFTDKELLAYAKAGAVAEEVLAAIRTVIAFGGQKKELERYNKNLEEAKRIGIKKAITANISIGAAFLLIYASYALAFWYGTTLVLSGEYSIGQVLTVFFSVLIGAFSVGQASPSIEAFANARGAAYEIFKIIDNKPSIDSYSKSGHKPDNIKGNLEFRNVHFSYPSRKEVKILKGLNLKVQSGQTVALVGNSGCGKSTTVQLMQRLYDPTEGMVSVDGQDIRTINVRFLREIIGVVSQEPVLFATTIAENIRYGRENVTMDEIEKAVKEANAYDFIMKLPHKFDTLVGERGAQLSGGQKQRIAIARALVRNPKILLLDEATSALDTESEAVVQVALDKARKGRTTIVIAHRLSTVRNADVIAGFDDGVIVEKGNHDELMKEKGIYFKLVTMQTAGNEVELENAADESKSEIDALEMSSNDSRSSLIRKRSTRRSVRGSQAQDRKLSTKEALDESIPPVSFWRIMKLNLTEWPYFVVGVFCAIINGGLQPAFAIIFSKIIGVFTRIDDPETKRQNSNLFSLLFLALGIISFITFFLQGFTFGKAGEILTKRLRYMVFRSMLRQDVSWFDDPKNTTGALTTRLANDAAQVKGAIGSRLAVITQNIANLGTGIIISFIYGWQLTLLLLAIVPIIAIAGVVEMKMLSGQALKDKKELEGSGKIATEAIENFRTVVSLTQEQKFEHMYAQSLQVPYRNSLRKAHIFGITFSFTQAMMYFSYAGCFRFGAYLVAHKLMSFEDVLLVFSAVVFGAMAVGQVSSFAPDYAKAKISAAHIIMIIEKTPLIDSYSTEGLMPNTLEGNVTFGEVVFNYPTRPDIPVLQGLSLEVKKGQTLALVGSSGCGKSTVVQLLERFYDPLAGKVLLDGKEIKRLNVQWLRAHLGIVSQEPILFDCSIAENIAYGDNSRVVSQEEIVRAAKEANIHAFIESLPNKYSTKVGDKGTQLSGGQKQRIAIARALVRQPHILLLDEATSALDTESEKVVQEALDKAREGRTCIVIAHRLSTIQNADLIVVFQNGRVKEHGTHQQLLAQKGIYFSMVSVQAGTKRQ
Efflux Transporter Substrate (efflux transporter),"BCRP inhibitory activity, rank among the tested compounds [1]",IC50 [1],IC50 (P-glycoprotein (P-gp)),Caco-2 Permeability (Caco-2 monolayers),solubility (Aqueous solubility; [2]),solubility (Aqueous solubility; [3]),solubility (Aqueous solubility; [4]),"P-gp inhibitory activity, rank among the tested compounds (P-glycoprotein (P-gp))",solubility (Aqueous solubility; 0.1N HCl),solubility (Aqueous solubility; Acetate Buffer pH 4.5),solubility (Aqueous solubility; Phosphate Buffer pH 6.5),Structure (SMILES),aqueous solubility compared with SM-1 (Aqueous solubility)
Yes,strongest BCRP inhibitor,19.5 µM,115 µM,Low,0.44 µg/mL,21 µg/mL,–,–,–,–,–,"CCCO[C@H]1CC[C@H](N(C(=O)Nc2ncc(SCC(=O)O)s2)C2CCCCC2)CC1 [SM-1, {2-[3-cyclohexyl-3-(trans-4-propoxy-cyclohexyl)-ureido]-thiazol-5-ylsulfanyl}-acetic acid, reference compound]",–
Yes,weakest BCRP inhibitors,> 212 µM,~212 µM,Low,2570 µg/mL,2930 µg/mL,30 µg/mL,–,–,–,–,"CCCO[C@H]1CC[C@H](N(C(=O)Nc2ncc([S+]([O-])CC(=O)O)s2)C2CCCCC2)CC1 (relative stereo) [Sulfoxide-1, {2-[3-Cyclohexyl-3-(trans-4-propoxy-cyclohexyl)-ureido]-thiazol-5-ylsulfinyl}-acetic acid]",much greater aqueous solubility than SM-1
Yes,–,~170 µM,~138 µM,Low,1630 µg/mL,1940 µg/mL,120 µg/mL,–,–,–,–,"CCCO[C@H]1CC[C@H](N(C(=O)Nc2ncc([S+]([O-])CC(=O)O)s2)C2CCCCC2)CC1 (single isomer, unassigned) [Sulfoxide-1A, {2-[3-Cyclohexyl-3-(trans-4-propoxy-cyclohexyl)-ureido]-thiazol-5-ylsulfinyl}-acetic acid]",much greater aqueous solubility than SM-1
Yes,weakest BCRP inhibitors,> 205 µM,~205 µM,Low,2070 µg/mL,2100 µg/mL,10 µg/mL,–,–,–,–,"CCCO[C@H]1CC[C@H](N(C(=O)Nc2ncc(S(=O)(=O)CC(=O)O)s2)C2CCCCC2)CC1 [Sulfone-1, {2-[3-Cyclohexyl-3-(trans-4-propoxy-cyclohexyl)-ureido]-thiazol-5-ylsulfonyl}-acetic acid]",much greater aqueous solubility than SM-1

Structure (SMILES),Efflux Transporter Substrate (efflux transporter),"BCRP inhibitory activity, rank among the tested compounds [1]",IC50 [1],IC50 (P-glycoprotein (P-gp)),Caco-2 Permeability (Caco-2 monolayers),solubility (Aqueous solubility; [2]),solubility (Aqueous solubility; [3]),solubility (Aqueous solubility; [4]),"P-gp inhibitory activity, rank among the tested compounds (P-glycoprotein (P-gp))",solubility (Aqueous solubility; 0.1N HCl),solubility (Aqueous solubility; Acetate Buffer pH 4.5),solubility (Aqueous solubility; Phosphate Buffer pH 6.5),aqueous solubility compared with SM-1 (Aqueous solubility)
"CCCO[C@H]1CC[C@H](N(C(=O)Nc2ncc([S+]([O-])CC(=O)O)s2)C2CCCCC2)CC1 (single isomer, unassigned) [Sulfoxide-1B, {2-[3-Cyclohexyl-3-(trans-4-propoxy-cyclohexyl)-ureido]-thiazol-5-ylsulfinyl}-acetic acid]",not an efflux transporter substrate and No,weakest BCRP inhibitors,> 212 µM,> 212 µM,Moderate,–,–,–,weakest P-gp inhibitor,120 µg/mL,1850 µg/mL,1990* μg/mL,much greater aqueous solubility than SM-1
